Source: patent US9556135B2, “Amino-dihydrothiazine and amino-dioxido dihydrothiazine compounds as beta-secretase antagonists and methods of use” (Amgen Inc., priority 2012, dated 2017)

Tested on: Abeta 40
Assay: In vivo inhibition of beta-secretase: Abeta 40 reduction in CSF and brain of the rat
Conditions: 10 mpk (unless otherwise noted), after 4 hrs
Source text: In Vivo Inhibition of Beta-Secretase
Several animal models, including mouse, rat, dog, and monkey, may be used to screen for inhibition of beta-secretase activity in vivo following administration of a test compound sample. Animals used in this invention can be wild type, transgenic, or gene knockout animals. […] One to twenty-four hours following the administration of compound, animals are sacrificed, and brains as well as cerebrospinal fluid (CSF) and plasma are removed for analysis of A-beta levels and drug or test compound concentrations (Dovey et al., 2001, Journal of Neurochemistry, 76, 173-181) Beginning at time 0, animals are administered by oral gavage, or other means of delivery such as intravenous injection, an inhibitory test compound of up to 100 mg/kg in a standard, conventional formulation, such as 2% hydroxypropyl methylcellulose, 1% Tween80. A separate group of animals receive 2% hydroxypropyl methylcellulose, 1% Tween80 alone, containing no test compound, and serve as a vehicle-control group. At the end of the test period, animals are sacrificed and brain tissues, plasma or cerebrospinal fluid are collected. Brains are either homogenized in 10 volumes (w/v) of 0.2% diethylamine (DEA) in 50 mM NaCl (Best et al., 2005, Journal of Pharmacology and Experimental Therapeutics, 313, 902-908), or in 10 volumes of 0.5% TritonX-100 in Tris-buffered saline (pH at about 7.6). Homogenates are centrifuged at 355,000 g, 4° C. for 30 minutes. CSF or brain supernatants are then analyzed for the presence of A-beta peptide by specific sandwich ELISA assays based on ECL (Electrochemiluminescence) technology. For example, rat Abeta40 is measured using biotinylated-4G8 (Signet) as a capture antibody and Fab40 (an in-house antibody specific to the C-terminal of Abeta40) as a detection antibody.
Actual vehicles used: Oral: 2% HPMC, 1% Tween80, pH 2.2

Row | SMILES | % reduction of rat CSF levels at 10 pmk [%] | % reduction of rat brain levels at 10 mpk [%]
1 | CC1(C)C(N)=N[C@](C)(c2cc(Nc3ncnc4cc(Cl)cnc34)ccc2F)C(F)S1(=O)=O (stereo partly drawn) [Example 228, N-(3-((3R)-5-amino-2-fluoro-3,6,6-trimethyl-1,1-dioxido-3,6-dihydro-2H-1,4-thiazin-3-yl)-4-fluorophenyl)-7-chloropyrido[3,2-d]pyrimidin-4-amine] | 67 | 58
2 | CC1(C)C(N)=N[C@](C)(c2cc(Nc3ncnc4cc(C#N)cnc34)ccc2F)C(F)S1(=O)=O (stereo partly drawn) [Example 229, 4-((3-((3R)-5-amino-2-fluoro-3,6,6-trimethyl-1,1-dioxido-3,6-dihydro-2H-1,4-thiazin-3-yl)-4-fluorophenyl)amino)pyrido[3,2-d]pyrimidine-7-carbonitrile] | 61 | 43
3 | Cc1cc(C#N)cnc1C(=O)Nc1ccc(F)c([C@]2(C)CS(=O)(=O)[C@@](C)(F)C(N)=N2)c1 [Example 324, N-(3-((3R,6R)-5-amino-6-fluoro-3,6-dimethyl-1,1-dioxido-3,6-dihydro-2H-1,4-thiazin-3-yl)-4-fluorophenyl)-5-cyano-3-methyl-2-pyridinecarboxamide] | 44 | 29
4 | CC1(C)C(N)=N[C@](C)(c2cc(NC(=O)c3ccc(Cl)cn3)ccc2F)CS1(=O)=O [Example 19, N-(3-((3R)-5-amino-3,6,6-trimethyl-1,1-dioxido-3,6-dihydro-2H-1,4-thiazin-3-yl)-4-fluorophenyl)-5-chloro-2-pyridinecarboxamide] | 83 | 74
5 | CC1(C)C(N)=N[C@](C)(c2cc(NC(=O)c3ccc(Cl)cn3)cnc2F)CS1(=O)=O [Example 398, N-(5-((3R)-5-amino-3,6,6-trimethyl-1,1-dioxido-3,6-dihydro-2H-1,4-thiazin-3-yl)-6-fluoro-3-pyridinyl)-5-chloro-2-pyridinecarboxamide] | 63 | 39
6 | Cc1cc(OC(F)F)cnc1C(=O)Nc1ccc(F)c([C@]2(CF)CS(=O)(=O)C(C)(C)C(N)=N2)c1 [Example 148, (S)—N-(3-(5-amino-3-(fluoromethyl)-6,6-dimethyl-1,1-dioxido-3,6-dihydro-2H-1,4-thiazin-3-yl)-4-fluorophenyl)-5-(difluoromethoxy)-3-methylpicolinamide] | 68 | 57
7 | CC1(C)C(N)=N[C@](C)(c2cc(Nc3ncc(F)c4cc(C#N)cnc34)ccc2F)CS1(=O)=O [Example 76, (R)-8-((3-(5-Amino-3,6,6-trimethyl-1,1-dioxido-3,6-dihydro-2H-1,4-thiazin-3-yl)-4-fluorophenyl)amino)-5-fluoro-1,7-naphthyridine-3-carbonitrile] | 60 | 46
8 | CC1(C)C(N)=N[C@](C)(c2cc(Nc3nccc4cc(Cl)cnc34)ccc2F)CS1(=O)=O [Example 45, N-(3-((3R)-5-amino-3,6,6-trimethyl-1,1-dioxido-3,6-dihydro-2H-1,4-thiazin-3-yl)-4-fluorophenyl)-3-chloro-1,7-naphthyridin-8-amine] | 63 | 34
9 | COc1cnc2c(Nc3ccc(F)c([C@]4(C)CS(=O)(=O)[C@@](C)(F)C(N)=N4)c3)ncnc2c1 [Example 177, (3R,6R)-5-Amino-6-fluoro-3-(2-fluoro-5-((7-methoxypyrido[3,2-d]pyrimidin-4-yl)amino)phenyl)-3,6-dimethyl-3,6-dihydro-2H-1,4-thiazine 1,1-dioxide] | 37 | 24
10 | COc1cnc2c(Nc3ccc(F)c([C@]4(C)CS(=O)(=O)C(C)(C)C(N)=N4)c3)nccc2c1 [Example 46, N-(3-((3R)-5-amino-3,6,6-trimethyl-1,1-dioxido-3,6-dihydro-2H-1,4-thiazin-3-yl)-4-fluorophenyl)-3-methoxy-1,7-naphthyridin-8-amine] | 76 | 64
11 | COc1cnc2c(Nc3cnc(F)c([C@]4(C)CS(=O)(=O)C(C)(C)C(N)=N4)c3)ncc(F)c2c1 [Example 219, N-(5-((3R)-5-amino-3,6,6-trimethyl-1,1-dioxido-3,6-dihydro-2H-1,4-thiazin-3-yl)-6-fluoro-3-pyridinyl)-5-fluoro-3-methoxy-1,7-naphthyridin-8-amine] | 42 | 9
12 | CC1(C)C(N)=N[C@](CF)(c2cc(NC(=O)c3ccc(Cl)cn3)ccc2F)CS1(=O)=O [Example 193, (S)—N-(3-(5-amino-3-(fluoromethyl)-6,6-dimethyl-1,1-dioxido-3,6-dihydro-2H-1,4-thiazin-3-yl)-4-fluorophenyl)-5-chloropicolinamide] | 57 | 30
13 | CC#CCOc1cnc(C(=O)Nc2ccc(F)c([C@]3(C)CS(=O)(=O)[C@@](C)(F)C(N)=N3)c2)cn1 [Example 317, N-(3-((3R,6R)-5-amino-6-fluoro-3,6-dimethyl-1,1-dioxido-3,6-dihydro-2H-1,4-thiazin-3-yl)-4-fluorophenyl)-5-(2-butyn-1-yloxy)-2-pyrazinecarboxamide] | 23 | 0
14 | COc1cnc(C(=O)Nc2ccc(F)c([C@]3(CF)CS(=O)(=O)C(C)(C)C(N)=N3)c2)c(C)c1 [Example 377, N-(3-((3S)-5-amino-3-(fluoromethyl)-6,6-dimethyl-1,1-dioxido-3,6-dihydro-2H-1,4-thiazin-3-yl)-4-fluorophenyl)-5-methoxy-3-methyl-2-pyridinecarboxamide] | 68 | 53
15 | COc1cnc2c(Nc3ccc(F)c([C@]4(C)CS(=O)(=O)C(C)(C)C(N)=N4)c3)nccc2n1 [Example 47, N-(3-((3R)-5-amino-3,6,6-trimethyl-1,1-dioxido-3,6-dihydro-2H-1,4-thiazin-3-yl)-4-fluorophenyl)-2-methoxypyrido[3,4-b]pyrazin-5-amine] | 82 | 66
16 | CC#CCOc1cnc(C(=O)Nc2ccc(F)c([C@@]3(C)N=C(N)C(C)(C)S(=O)(=O)C3F)c2)cn1 (stereo partly drawn) [Example 332, N-(3-((3R)-5-amino-2-fluoro-3,6,6-trimethyl-1,1-dioxido-3,6-dihydro-2H-1,4-thiazin-3-yl)-4-fluorophenyl)-5-(2-butyn-1-yloxy)-2-pyrazinecarboxamide] | 24 | 11
17 | Cc1cc(OC(F)F)cnc1C(=O)Nc1ccc(F)c([C@@]2(C)N=C(N)C(C)(C)S(=O)(=O)C2F)c1 (stereo partly drawn) [Example 330, N-(3-((3R)-5-amino-2-fluoro-3,6,6-trimethyl-1,1-dioxido-3,6-dihydro-2H-1,4-thiazin-3-yl)-4-fluorophenyl)-5-(difluoromethoxy)-3-methyl-2-pyridinecarboxamide] | 78 | 72
